Like-named read-outs stand apart in the source and are kept apart here.
Tests used:
[1] = tested on: leukemia MOLM-13 cell line; experiment: 4-day cell viability assay, CellTiter-Glo; assay type: cell-based; conditions: read-out: Cell Growth Inhibition (IC50 (nM)) MOLM-13 Cell Line (CellTiter-Glo assay)
Method: (§1) The effect of representative BET bromodomain inhibitors on cell viability was determined in a 4-day proliferation assay. Cells were maintained in the appropriate culture medium with 10% FBS at 37° C. and an atmosphere of 5% CO2. All the cell lines were used within three months of thawing fresh vials.
(§2) Cells were seeded in 96-well flat bottom (Corning COSTAR, Corning, N.Y., cat#3595) or white opaque cell culture plates (BD Falcon, cat#353296) at a density of 3,000-10,000 cells/well in 75 μl of culture medium. Compounds were serially diluted in the appropriate medium, and 75 μl of the diluted compounds were added to the appropriate wells of the cell plate. After the addition of compounds, the cells were incubated at 37° C. in an atmosphere of 5% CO2 for 4 days. Cell viability was determined using the CellTiter-Glo® Luminescent Cell Viability Assay Kit (Promega, Madison, Wis.) for MOLM-13 cells and WST (2-(2-methoxy-4-nitrophenyl)-3-(4-nitrophenyl)-5-(2,4-disulfophenyl)-2H-tetrazolium, monosodium salt) Cell Counting-8 Kit (Dojindo Molecular Technologies, Inc., Rockville, Md.) for MDA-MB-436 cells according to the manufacturers' instructions.
For the CellTiter-Glo assay, 100 μl of CellTiter-Glo® Reagent was added to each well, and then the plates were incubated at room temperature for 10-20 minutes. The luminescent signal was measured using a Tecan Infinite M1000 multimode microplate reader (Tecan, Morrisville, N.C.). The readings were normalized to the DMSO-treated cells and the IC50 was calculated by nonlinear regression (four parameters sigmoid fitted with variable slope, least squares fit, and no constraint) analysis using the GraphPad Prism 5 software.

[2] = tested on: breast cancer MDA-MB-436 cell line; experiment: 4-day cell viability assay, WST; assay type: cell-based; conditions: read-out: Cell Growth Inhibition (IC50 (nM)) MDA-436 Cell Line (WST assay)
Method: as §1, §2
For the WST assay, WST-8 reagent was added to each well at a final concentration of 10% (v/v), and then the plates were incubated at 37° C. for 1-2 hours for color development. The absorbance was measured at 450 nm using a SPECTRAmax PLUS plate reader (Molecular Devices, Sunnyvale, Calif.). The readings were normalized to the DMSO-treated cells and the half maximal inhibitory concentration (IC50) was calculated by nonlinear regression (four parameters sigmoid fitted with variable slope, least squares fit, and no constraint) analysis using the GraphPad Prism 5 software (GraphPad Software, La Jolla, Calif.).

BRD2 BD2 = BRD2 BD2 (Homo sapiens (Human), UniProt P25440); experiment: FP competitive binding assay using Cpd. No. 350 as the probe
Method: (§3) Fluorescence Polarization (FP) competitive binding studies (see above) were carried out using the FAM labeled fluorescent probe Cpd. No. 350 to determine binding affinities of representative compounds to both BD1 and BD2 of BRD2, BRD3, and BRD4 proteins. Equilibrium dissociation constants (Id) values of Cpd. No. 350 to these six proteins were determined from protein saturation experiments by monitoring the total fluorescence polarization of mixtures composed with the fluorescent probe at a fixed concentration and proteins with increasing concentrations up to full saturation. Serial dilutions of testing protein were mixed with Cpd. No. 350 to a final volume of 200 μl in the assay buffer. […] Plates were incubated at room temperature for 30 minutes with gentle shaking to assure equilibrium. […] Kd values of Cpd.
(§4) The IC50 and Ki values of compounds were determined in a competitive binding experiment as described above. […] FP values were measured as described above. IC50 values were determined by nonlinear regression fitting of the competition curves.

BRD3 BD1 = BRD3 BD1 (Homo sapiens (Human), UniProt Q15059); experiment: as above
Method: as §3, §4

BRD4 BD2 = BRD4 BD2 (Homo sapiens (Human), UniProt O60885); experiment: as above
Method: as §3, §4

BRD2 BD1 = BRD2 BD1 (Homo sapiens (Human), UniProt P25440); experiment: as above
Method: as §3, §4

BRD3 BD2 = BRD3 BD2 (Homo sapiens (Human), UniProt Q15059); experiment: as above
Method: as §3, §4

BRD4 BD1 = BRD4 BD1 (Homo sapiens (Human), UniProt O60885); experiment: as above
Method: as §3, §4

[3] = Homo sapiens, MOLM-13, 96 h, 4 days
[4] = Homo sapiens, MDA-MB-436, 96 h, 4 days
[5] = read-out: BRD2 BD2 Ki, FP, Cpd. No. 350 probe […]
[6] = read-out: BRD3 BD1 Ki, FP, Cpd. No. 350 probe […]
[7] = read-out: BRD4 BD2 Ki, FP, Cpd. No. 350 probe […]
[8] = read-out: BRD2 BD1 Ki, FP, Cpd. No. 350 probe […]
[9] = read-out: BRD3 BD2 Ki, FP, Cpd. No. 350 probe […]
[10] = read-out: BRD4 BD1 Ki, FP, Cpd. No. 350 probe […]

Sequence of BRD2 BD2 (P25440 344-453): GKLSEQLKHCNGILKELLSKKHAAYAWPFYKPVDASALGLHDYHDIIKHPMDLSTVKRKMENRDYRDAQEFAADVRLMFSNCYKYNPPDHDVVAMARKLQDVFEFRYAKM
Sequence of BRD3 BD2 (Q15059 306-415): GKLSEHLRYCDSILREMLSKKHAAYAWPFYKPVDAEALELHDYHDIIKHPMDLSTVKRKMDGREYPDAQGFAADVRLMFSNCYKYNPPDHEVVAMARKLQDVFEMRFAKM
Sequence of BRD3 BD1 (Q15059 34-140): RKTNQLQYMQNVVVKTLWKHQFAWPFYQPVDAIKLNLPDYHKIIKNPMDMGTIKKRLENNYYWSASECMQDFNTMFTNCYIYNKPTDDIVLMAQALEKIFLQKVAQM
Sequence of BRD2 BD1 (P25440 74-180): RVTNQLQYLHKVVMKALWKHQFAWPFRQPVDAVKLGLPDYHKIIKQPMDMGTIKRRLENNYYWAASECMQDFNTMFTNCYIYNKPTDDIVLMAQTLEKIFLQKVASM

| SMILES | IC50 [1, 3] [nM] | IC50 [2, 4] [nM] | Ki (BRD2 BD2; [5]) [nM] | Ki (BRD3 BD1; [6]) [nM] | Ki (BRD4 BD2; [7]) [nM] | Ki (BRD2 BD1; [8]) [nM] | Ki (BRD3 BD2; [9]) [nM] | Ki (BRD4 BD1; [10]) [nM] | also measured |
| --- | --- | --- | --- | --- | --- | --- | --- | --- | --- |
| COc1cc2c(cc1-c1c(C)noc1C)[nH]c1ccnc(-c3c(-c4ccccc4)n[nH]c3C)c12 [Cpd. No. 26, 4-(8-methoxy-1-(5-methyl-3-phenyl-1H-pyrazol-4-yl)-5H-pyrido[4,3-b]indol-7-yl)-3,5-dimethylisoxazole] | 431 | 696 | – | – | – | – | – | – | – |
| COc1cc2c(cc1-c1c(C)nn(C)c1C)[nH]c1ccnc(-c3c(C)nn(C)c3C)c12 [Cpd. No. 33, 8-methoxy-1,7-bis(1,3,5-trimethyl-1H-pyrazol-4-yl)-5H-pyrido[4,3-b]indole] | – | – | – | – | – | – | – | – | Ki (BRD2 BD2): 909 ± 272 nM; Ki (BRD3 BD1): 1220 ± 100 nM; Ki (BRD4 BD2): 867 ± 107 nM; Ki (BRD2 BD1): 1670 ± 448 nM; Ki (BRD3 BD2): 348 ± 12 nM; Ki (BRD4 BD1): 1726 ± 17 nM |
| COc1cc2c(cc1-c1c(C)noc1C)[nH]c1nc(C)nc(-c3cccc(C(C)(C)O)c3)c12 [Cpd. No. 183, 2-(3-(7-(3,5-Dimethylisoxazol-4-yl)-6-methoxy-2-methyl-9H-pyrimido[4,5-b]indol-4-yl)phenyl)propan-2-ol] | 20 | 93 | 8.8 | 6.1 | 11.7 | 5.2 | 4.7 | 7.9 | – |
| COc1cc2c(cc1-c1c(C)noc1C)[nH]c1nc(C)nc(-c3ccc(C(=O)NC4CCN(C)CC4)c4ccccc34)c12 [Cpd. No. 196, 4-(7-(3,5-Dimethylisoxazol-4-yl)-6-methoxy-2-methyl-9H-pyrimido[4,5-b]indol-4-yl)-N-(1-methylpiperidin-4-yl)-1-naphthamide] | 6.8 | 53 | 3.5 | 9.7 | 7 | 4.3 | 1.4 | 12.3 | – |
| COc1cc2c(cc1-c1c(C)noc1C)[nH]c1nc(C)nc(-c3ccc(C(=O)NC4CCN(C5COC5)CC4)c4ccccc34)c12 [Cpd. No. 197, 4-(7-(3,5-Dimethylisoxazol-4-yl)-6-methoxy-2-methyl-9H-pyrimido[4,5-b]indol-4-yl)-N-(1-(oxetan-3-yl)piperidin-4-yl)-1-naphthamide] | 17.3 | 101 | 3.6 | 10.5 | 8.9 | 6.2 | 1.3 | 17.1 | – |
| COc1cc2c(cc1-c1c(C)noc1C)[nH]c1nc(C)nc(-c3ccc(C(=O)N4CCN(C)CC4)c4ccccc34)c12 [Cpd. No. 207, (4-(7-(3,5-Dimethylisoxazol-4-yl)-6-methoxy-2-methyl-9H-pyrimido[4,5-b]indol-4-yl)naphthalen-1-yl)(4-methylpiperazin-1-yl)methanone] | 5.3 | 58.1 | 5.1 | 10 | 4.1 | 5.3 | 1.3 | 14.7 | – |
| COc1cc2c(cc1-c1c(C)noc1C)[nH]c1nc(C)nc(-c3cc(C(=O)NC4CCN(C)CC4)[nH]c3C(C)C)c12 [Cpd. No. 211, 4-(7-(3,5-Dimethylisoxazol-4-yl)-6-methoxy-2-methyl-9H-pyrimido[4,5-b]indol-4-yl)-5-isopropyl-N-(1-methylpiperidin-4-yl)-1H-pyrrole-2-carboxamide] | 10.4 | 140 | 4.9 | 10.8 | 5.2 | 5.7 | 1.2 | 17.2 | – |
| COc1cc2c(cc1-c1c(C)noc1C)[nH]c1nc(C)nc(-c3cc(C(=O)NC4CCN(C5CCOCC5)CC4)[nH]c3C(C)C)c12 [Cpd. No. 212, 4-(7-(3,5-Dimethylisoxazol-4-yl)-6-methoxy-2-methyl-9H-pyrimido[4,5-b]indol-4-yl)-5-isopropyl-N-(1-(tetrahydro-2H-pyran-4-yl)piperidin-4-yl)-1H-pyrrole-2-carboxamide] | 22 | 100 | 4.6 | 10.2 | 4.5 | 5.7 | 1 | 17 | – |
| COc1cc2c(cc1-c1c(C)noc1C)[nH]c1nc(C)nc(-c3cc(C(=O)NC4CCN(C5COC5)CC4)[nH]c3C(C)C)c12 [Cpd. No. 213, 4-(7-(3,5-Dimethylisoxazol-4-yl)-6-methoxy-2-methyl-9H-pyrimido[4,5-b]indol-4-yl)-5-isopropyl-N-(1-(oxetan-3-yl)piperidin-4-yl)-1H-pyrrole-2-carboxamide] | 48 | 225 | 7.1 | 14 | 6.5 | 10.5 | 2.2 | 20.8 | – |
| COc1cc2c(cc1-c1c(C)noc1C)[nH]c1nc(C)nc(-c3ccc(NC(=O)N4CCN(C)CC4)c4ccccc34)c12 [Cpd. No. 316] | – | – | – | – | – | – | – | – | IC50 ([1]; Homo sapiens, MOLM-13, 96 h): 7.4 nM; IC50 ([2]; Homo sapiens, MDA-MB-436, 96 h): 45.2 nM |
| COc1cc2c(cc1-c1c(C)noc1C)[nH]c1nc(C)nc(-c3ccc(NC(=O)N4CCN(C5COC5)CC4)c4ccccc34)c12 [Cpd. No. 317] | – | – | – | – | – | – | – | – | IC50 ([1]; Homo sapiens, MOLM-13, 96 h): 31.6 nM; IC50 ([2]; Homo sapiens, MDA-MB-436, 96 h): 169 nM |
| COc1cc2c(cc1-c1c(C)noc1C)[nH]c1nc(C)nc(-c3cc(C(=O)NC4CCN(C)CC4)cc(C(C)(C)C)c3)c12 [Cpd. No. 319] | – | – | – | – | – | – | – | – | IC50 ([1]; Homo sapiens, MOLM-13, 96 h): 10 nM; IC50 ([2]; Homo sapiens, MDA-MB-436, 96 h): 67.4 nM |
| COc1cc2c(cc1-c1c(C)noc1C)[nH]c1nc(C)nc(-c3cc(C(=O)NC4CCN(C5COC5)CC4)cc(C(C)(C)C)c3)c12 [Cpd. No. 322] | – | – | – | – | – | – | – | – | IC50 ([1]; Homo sapiens, MOLM-13, 96 h): 19.4 nM; IC50 ([2]; Homo sapiens, MDA-MB-436, 96 h): 63.9 nM |
| COc1cc2c(cc1-c1c(C)noc1C)[nH]c1ccnc(-c3c(C)nn(-c4ccccc4)c3C)c12 [Cpd. No. 352, 4-(1-(3,5-dimethyl-1-phenyl-1H-pyrazol-4-yl)-8-methoxy-5H-pyrido[4,3-b]indol-7-yl)-3,5-dimethylisoxazole] | – | – | 52.9 ± 2.7 | 31.8 ± 1.5 | 98.1 ± 6.1 | 62.6 ± 9 | 35 ± 2 | 103 ± 3 | IC50 ([1]; 4 days): 751 nM; IC50 ([2]; 4 days): 724 nM |
| COc1cc2c(cc1-c1c(C)noc1C)[nH]c1ccnc(Cl)c12 [RX-3, 4-(1-chloro-8-methoxy-5H-pyrido[4,3-b]indol-7-yl)-3,5-dimethylisoxazole] | – | – | 109 ± 10 | 144 ± 17 | 194 ± 24 | 215 ± 34 | 63.8 ± 6 | 305 ± 26 | – |
| COc1cc2c(cc1-c1c(C)nn(C)c1C)[nH]c1ccnc(Cl)c12 [RX-27] | – | – | 2840 ± 574 | 5030 ± 1010 | 1950 ± 175 | 5450 ± 1920 | 2050 ± 142 | 4842 ± 29 | – |
| CCc1onc(C)c1-c1cc2[nH]c3ccnc(Cl)c3c2cc1OC [RX-38] | – | – | 1880 ± 432 | 703 ± 432 | 2180 ± 132 | 760 ± 240 | 1280 ± 1070 | 2810 ± 782 | – |
| CCc1noc(C)c1-c1cc2[nH]c3ccnc(Cl)c3c2cc1OC [RX-39] | – | – | 638 ± 70 | 668 ± 82 | 478 ± 69 | 1720 ± 892 | 406 ± 192 | 1240 ± 549 | – |
| CCc1noc(CC)c1-c1cc2[nH]c3ccnc(Cl)c3c2cc1OC [RX-45] | – | – | – | – | 8320 ± 3220 | – | 3440 ± 1980 | > 10000 | – |

From patent publication US9675697B2 (THE REGENTS OF THE UNIVERSITY OF MICHIGAN, priority 2013, dated 2017)
